Data on 69 compounds can be found in article PMC6792352, “Limited Chemical Structural Diversity Found to Modulate Thyroid Hormone Receptor in the Tox21 Chemical Library” (Environmental Health Perspectives, 2019).

Broadly, the CC50 is the concentration at which the toxic effect on the cells reaches its halfway point. High values mean lower toxicity to the cells, low ones greater toxicity to the cells.

Counter-ions that a name gives are not always drawn.

This series can be described thus: in vitro. To be noted: rat, gh3-tre-luc cells.

With `CC(C)C1=CC2=CC[C@@H]3[C@](C)(CCC[C@@]3(C)C(=O)O)[C@H]2CC1` [Sodium abietate], the midpoint of cytotoxicity (AC50 (uM) modified / 1000), the CC50 at 24 h, lay at 74.3 µM.

Regarding `CCCCC(=O)Cl` [Valeryl chloride], the CC50 at 24 h (AC50 (uM) modified / 1000) is greater than 90 µM.

Compound `C[C@]12CCC(=O)C=C1CC[C@@H]1[C@@H]2[C@@H](O)C[C@@]2(C)[C@H]1CC[C@]2(O)C(=O)COC(=O)CCC(=O)O` [Hydrocortisone 21-hemisuccinate sodium salt] returned a CC50 at 24 h (AC50 (uM) modified / 1000) greater than 50 µM.

`Nc1ccncc1N` [3,4-Diaminopyridine] returned a CC50 at 24 h (AC50 (uM) modified / 1000) greater than 50 µM. The same measure, in the same setting: with `NS(=O)(=O)c1ccccc1Cl` [2-Chlorobenzenesulfonamide] the figure was greater than 90 µM; with `CC(C)(C)[C@]1(O)CCN2C[C@H]3c4ccccc4CCc4cccc(c43)[C@@H]2C1` [Butaclamol hydrochloride], 22.9 µM.

On to `NCCCCCCN` [1,6-Hexanediamine], for which the CC50 at 24 h (AC50 (uM) modified / 1000) was greater than 90 µM. Still for that read-out and setting: the value for `CCOc1ccc2nc3cc(N)ccc3c(N)c2c1` [Ethacridine lactate hydrate] was greater than 50 µM; that for `CC(O)CO` (centres unmarked) [1,2-Propylene glycol] was greater than 90 µM; that for `Cc1cccc(C)c1NC(=O)CN1CCCC1=O` [Nefiracetam] was greater than 50 µM. The same measure, in the same setting: with `N#C/N=C1\SCCN1Cc1ccc(Cl)nc1` [Thiacloprid] the figure was greater than 90 µM. On the same count and under the same terms, with `CC(CN=Cc1ccccc1O)N=Cc1ccccc1O` (centres unmarked) [N,N'-Disalicylidene-1,2-diaminopropane] the figure was greater than 90 µM.

For the compound `CCCCOCCOC(=O)COc1cc(Cl)c(Cl)cc1Cl` [2,4,5-T-butotyl], the CC50 at 24 h (AC50 (uM) modified / 1000) is greater than 90 µM. On the same count and under the same terms, with `NC/C=C/C(=O)O` [(E)-4-amino-2-butenoic acid] the figure was greater than 50 µM; with `CC(C)CCCCCCc1ccc(OCCOCCO)cc1` [Igepal CO-890], greater than 100 µM.

Take `CCOP(=S)(OCC)O/N=C(\C#N)c1ccccc1` [Phoxim]: the CC50 at 24 h runs as follows: (AC50 (uM) modified / 1000, Tox21_110001=Tox21_113357, viability, 1 nM T3 present, 24 h) greater than 50 µM; (AC50 (uM) modified / 1000, Tox21_110001=Tox21_301580, viability, 1 nM T3 present, 24 h) greater than 90 µM.

On to `O=CO` [Formic acid, potassium salt], for which the CC50 at 24 h (AC50 (uM) modified / 1000) was greater than 5 µM. The same measure, in the same setting: the value for `CCO/N=C(\CC)C1=C(O)CC(c2c(C)cc(C)cc2C)CC1=O` (centres unmarked) [Tralkoxydim] was greater than 90 µM.

Turning to `CCOC(=O)[C@H](CCc1ccccc1)N[C@@H](C)C(=O)N1CCC[C@H]1C(=O)O` [Enalapril], the CC50 at 24 h (AC50 (uM) modified / 1000) was greater than 50 µM. The same measure, in the same setting: with `C=CCOC(=O)CCC1CCCCC1` [Prop-2-en-1-yl 3-cyclohexylpropanoate] the figure was greater than 90 µM. Where the note is “AC50 (uM) modified / 1000, Tox21_110001=Tox21_201090, viability, 1 nM T3 present, 24 h”, `CC(=O)C(Cl)Cl` [1,1-Dichloropropanone] gave a CC50 at 24 h greater than 90 µM. As for `CC1CN(c2cc3c(cc2F)c(=O)c(C(=O)O)cn3-c2ccc(F)cc2F)CCN1` (centres unmarked) [Temafloxacin], the CC50 at 24 h (AC50 (uM) modified / 1000) was greater than 50 µM. `CCc1cc(SCc2sc(-c3ccc(C(F)(F)F)cc3)nc2CN2CCN(c3ccc(OC)cc3)CC2)ccc1OCC(=O)O` [PharmaGSID_47315] yielded a half-maximal cytotoxic concentration (CC50) at 24 h (AC50 (uM) modified / 1000) of 22.4 µM. Still for that read-out and setting: with `Nc1ncn([C@H]2C[C@H](O)[C@@H](CO)O2)c(=O)n1` [Decitabine] the figure was greater than 50 µM; with `CCCCC(=O)N(Cc1ccc(-c2ccccc2-c2nnn[nH]2)cc1)[C@H](C(=O)O)C(C)C` [Valsartan], greater than 50 µM. With `C=C(C)[C@H]1CN[C@H](C(=O)O)[C@H]1CC(=O)O` [Kainic acid], the CC50 at 24 h (AC50 (uM) modified / 1000, Tox21_110001=Tox21_110905, viability, 1 nM T3 present, 24 h) was greater than 50 µM. Under “AC50 (uM) modified / 1000”, `Cc1cc(CCN2CCN(c3nsc4ccccc34)CC2)cc2c1NC(=O)CC2(C)C` [PD 0343701] displayed a CC50 at 24 h of 46.9 µM.

Compound `OCCC(F)(F)C(F)(F)C(F)(F)C(F)(F)C(F)(F)C(F)(F)F` [6:2 Fluorotelomer alcohol] displayed a CC50 at 24 h (AC50 (uM) modified / 1000) greater than 90 µM.

`OC[C@H]1O[C@H](O[C@@]2(CO)O[C@@H](O)[C@H](O)[C@@H]2O)[C@H](O)[C@@H](O)[C@@H]1O` [alpha-L-Lyxo-hex-5-ulofuranosyl alpha-D-glucopyranoside] displayed a half-maximal cytotoxic concentration (CC50) at 24 h (AC50 (uM) modified / 1000) greater than 50 µM. The same measure, in the same setting: with `FC(F)(F)C(F)(F)C(F)(F)C(F)(F)C(F)(F)C(F)(F)CCI` [1H,1H,2H,2H-Perfluorooctyl iodide] the figure was greater than 50 µM. Same read-out and setting: with `Cc1cc(C(C)(C)C)c(O)c(C)c1Cn1c(=O)n(Cc2c(C)cc(C(C)(C)C)c(O)c2C)c(=O)n(Cc2c(C)cc(C(C)(C)C)c(O)c2C)c1=O` [Cyanox CY 1790] the figure was greater than 90 µM. Where the note is “AC50 (uM) modified / 1000”, `CC(=O)OCC1=C(C(=O)O)N2C(=O)[C@@H](NC(=O)Cc3cccs3)[C@H]2SC1` [Cephalothin] registered a CC50 at 24 h greater than 50 µM. On the same count and under the same terms, the value for `C[n+]1ccccc1/C=N/O` [Pralidoxime chloride] was greater than 20 µM; that for `CCN(C=O)CC` [Diethylformamide] was greater than 90 µM. `CC=C(CC)C(=O)NC(N)=O` [1-(2-Ethylcrotonoyl)urea] returned a CC50 at 24 h (AC50 (uM) modified / 1000, Tox21_110001=Tox21_113550, viability, 1 nM T3 present, 24 h) greater than 50 µM. Turning to `O=C(OCc1ccccc1)c1ccccc1O` [Benzyl salicylate], under “AC50 (uM) modified / 1000”, the 50% cytotoxic concentration (CC50) at 24 h is greater than 90 µM.

Compound `NCC[C@H](O)C(=O)N[C@@H]1C[C@H](N)[C@@H](O[C@H]2O[C@H](CN)CC[C@H]2N)[C@H](O)[C@H]1O[C@H]1O[C@H](CO)[C@@H](O)[C@H](N)[C@H]1O` [Arbekacin sulfate] had a cytotoxic concentration (CC50) at 24 h (AC50 (uM) modified / 1000) greater than 50 µM. Still for that read-out and setting: the value for `CSc1ccc2c(c1)C(N1CCN(C)CC1)Cc1ccccc1S2` (centres unmarked) [Metitepine] was 5.16 µM; that for `O=C(/C=C/c1ccccc1)OC/C=C/c1ccccc1` [3-Phenyl-2-propen-1-yl 3-phenylacrylate] was greater than 90 µM.

Take `CC(C)(Cl)[N+](=O)[O-]` [2-Chloro-2-nitropropane]: where the note is “AC50 (uM) modified / 1000, Tox21_110001=Tox21_200336, viability, 1 nM T3 present, 24 h”, the CC50 at 24 h is greater than 90 µM. Under “AC50 (uM) modified / 1000”, `CCC(C)COC(=O)CC(C)C` (centres unmarked) [2-Methylbutyl isovalerate] displayed a CC50 at 24 h greater than 90 µM. Same read-out and setting: the value for `N#CCCCC(C#N)CCC#N` (centres unmarked) [1,3,6-Hexanetricarbonitrile] was greater than 90 µM; that for `CC(C=O)Cc1ccc(C(C)C)cc1` (centres unmarked) [Cyclamen aldehyde] was greater than 90 µM; that for `C=CCN(CC=C)C(=O)C(Cl)Cl` [Dichlormid] was greater than 90 µM.

Where the note is “AC50 (uM) modified / 1000”, `CCCCCCCCO` [1-Octanol] returned a CC50 at 24 h greater than 90 µM. Still for that read-out and setting: with `COC(=O)c1cccc(C(=O)OC)c1` [Dimethyl isophthalate] the figure was greater than 90 µM. In turn, `CCOP(=S)(OCC)Oc1ccc(Cl)cc1Cl` [Dichlofenthion] displayed a 50% cytotoxic concentration (CC50) at 24 h (AC50 (uM) modified / 1000, Tox21_110001=Tox21_301160, viability, 1 nM T3 present, 24 h) greater than 90 µM. Regarding `CC1=C(O)C(=O)C(C)O1` (centres unmarked) [4-Hydroxy-2,5-dimethyl-3(2H)furanone], the CC50 at 24 h (AC50 (uM) modified / 1000) is greater than 90 µM. Still for that read-out and setting: the value for `C[C@]12C=CC(=O)C=C1CC[C@@H]1[C@@H]2[C@@H](O)C[C@@]2(C)[C@H]1CC[C@]2(O)C(=O)CO` [Prednisolone] was greater than 90 µM.

Compound `CCCCCCOC(=O)c1ccc(O)cc1` [Hexylparaben] yielded a CC50 at 24 h (AC50 (uM) modified / 1000) of 56.8 µM.

In turn, `CCN(CC)Cc1nccn1-c1ccc([N+](=O)[O-])cc1C(=O)c1ccccc1Cl` [Nizofenone] registered a 50% cytotoxic concentration (CC50) at 24 h (AC50 (uM) modified / 1000) greater than 50 µM. Same read-out and setting: the value for `CC(C)(C)C1CCCCC1=O` (centres unmarked) [2-tert-Butylcyclohexanone] was greater than 90 µM; that for `COc1cc2c3cc1Oc1cc(ccc1O)C[C@@H]1c4c(cc(OC)c(O)c4Oc4ccc(cc4)C[C@@H]3N(C)CC2)CC[N+]1(C)C` [(+)-Tubocurarine chloride hydrochloride] was greater than 50 µM. The same measure, in the same setting: with `C1CC(COCC2CO2)CCC1COCC1CO1` (centres unmarked) [2,2'-[Cyclohexane-1,4-diylbis(methanediyloxymethanediyl)]dioxirane] the figure was 59.2 µM; with `CCCCNCC(O)c1ccc(O)cc1` (centres unmarked) [Bamethan], greater than 50 µM. The same measure, in the same setting: the value for `CCOC1O[C@H]([C@@H](COCc2ccccc2)OCc2ccccc2)[C@H](OCc2ccccc2)[C@H]1O` (some centres unmarked) [Tribenoside] was greater than 20 µM. With `CCCCCCCC(=O)OCCCCCC` [Hexyl octanoate], the CC50 at 24 h (AC50 (uM) modified / 1000) was greater than 90 µM. The compound `O=C1OC[C@@H](Cc2cccc(O)c2)[C@@H]1Cc1cccc(O)c1` [Enterolactone] displayed a CC50 at 24 h (AC50 (uM) modified / 1000) greater than 30 µM. Compound `C[C@]12C[C@H](O)[C@H]3[C@@H](CCC4=CC(=O)CC[C@@]43C)[C@@H]1CC[C@@H]2C(=O)CO` [Corticosterone] gave a CC50 at 24 h (AC50 (uM) modified / 1000) greater than 90 µM. Same read-out and setting: with `O=C(O)c1ccccc1-c1c2ccc(=O)cc-2oc2cc(O)ccc12` [Fluorescein sodium] the figure was greater than 50 µM; with `CC(C)N1C(=O)N(c2ccccc2)CS/C1=N\C(C)(C)C` [Buprofezin], 45.1 µM. Still for that read-out and setting: with `CCOC(=O)C(C)C(C)=O` (centres unmarked) [Ethyl-2-methyl acetoacetate] the figure was greater than 90 µM. On the same count and under the same terms, with `O=C1CCN(c2ccccc2)N1` [3-Pyrazolidinone,1-phenyl-] the figure was greater than 90 µM; with `O=C1c2cccc(O)c2C(=O)c2c(O)cccc21` [Danthron], greater than 90 µM; with `C=C(C)[C@@H]1CCC2=CC(=O)C[C@@H](C)[C@]2(C)C1` [Nootkatone], greater than 90 µM. As for `NNc1ccccc1` [Phenylhydrazine], the CC50 at 24 h runs as follows: (AC50 (uM) modified / 1000, Tox21_110001=Tox21_201977, viability, 1 nM T3 present, 24 h) 71 µM; (AC50 (uM) modified / 1000, Tox21_110001=Tox21_303018, viability, 1 nM T3 present, 24 h) 42 µM. Take `O=C(Nc1ccc2c(c1)Cc1ccccc1-2)C(F)(F)F` [N-(2-Fluorenyl)-2,2,2-trifluoroacetamide]: where the note is “AC50 (uM) modified / 1000”, the CC50 at 24 h is greater than 90 µM. The same measure, in the same setting: the value for `CC(=O)CC/C=C(\C)CCC=C(C)C` [6,10-Dimethyl-5,9-undecadiene-2-one] was greater than 90 µM. On the same count and under the same terms, the value for `Nc1ccccc1` [Anilinium nitrate] was greater than 50 µM.
